The record followed here is US10906915B2, “Substituted pyrazoloazepin-4-ones and their use as phosphodiesterase inhibitors” (LEO Pharma A/S, priority 2016, dated 2021).

The structures appear in SMILES notation.

For the assay, the target named is human PDE4D catalytic domain (UniProt no. Q08499) (Homo sapiens (Human), UniProt Q08499). Briefly: PDE4 assay (TR-FRET, FAM-cAMP cleavage). It counts as biochemical. To be noted: read-out: PDE4 IC50 range. An outline of the steps: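 Read-out is time-resolved FRET from Tb donor to FAM-AMP captured on trivalent-metal nanoparticles added to stop the reaction. Substrate was a mix of plain and FAM-labelled cAMP, cleaved by human PDE4D catalytic domain ([…]) with titrated compound; IC50 ranges (nM) versus controls.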
Chain of human PDE4D catalytic domain (Q08499 380-740 limits assumed): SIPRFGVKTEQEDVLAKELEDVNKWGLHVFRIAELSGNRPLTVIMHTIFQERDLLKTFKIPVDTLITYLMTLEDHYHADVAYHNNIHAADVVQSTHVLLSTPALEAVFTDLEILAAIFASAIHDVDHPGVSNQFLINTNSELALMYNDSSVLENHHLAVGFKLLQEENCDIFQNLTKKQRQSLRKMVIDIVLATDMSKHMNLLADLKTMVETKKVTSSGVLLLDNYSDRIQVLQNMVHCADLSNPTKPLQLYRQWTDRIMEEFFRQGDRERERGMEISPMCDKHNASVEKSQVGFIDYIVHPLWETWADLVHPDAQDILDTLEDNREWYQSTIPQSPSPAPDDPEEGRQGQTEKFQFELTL
A word on the IC50: it is the point on the concentration scale where inhibition reaches its midpoint. As for `CCc1nn(CC(C)(C)COC(=O)c2c(F)cccc2Cl)c2c1C(=O)NCC1(CCOCC1)C2` [Example 300, [3-(3-ethyl-4-oxo-spiro[6,8-dihydro-5H-pyrazolo[4,3-c]azepine-7,4′-tetrahydropyran]-1-yl)-2,2-dimethyl-propyl] 2-chloro-6-fluoro-benzoate], the IC50 is less than 100 nM.
For the compound `CCc1nn(CC(C)(C)COC(=O)c2ccc(F)cc2Cl)c2c1C(=O)NCC1(CCOCC1)C2` [Example 301, [3-(3-ethyl-4-oxo-spiro[6,8-dihydro-5H-pyrazolo[4,3-c]azepine-7,4′-tetrahydropyran]-1-yl)-2,2-dimethyl-propyl] 2-chloro-4-fluoro-benzoate], the IC50 was less than 100 nM.
For `CCc1nn(CC(C)(C)COC(=O)c2cccc(C(F)(F)F)c2)c2c1C(=O)NCC1(CCOCC1)C2` [Example 302, [3-(3-ethyl-4-oxo-spiro[6,8-dihydro-5H-pyrazolo[4,3-c]azepine-7,4′-tetrahydropyran]-1-yl)-2,2-dimethyl-propyl] 3-(trifluoromethyl)benzoate], the IC50 is less than 100 nM.
For the compound `CCc1nn(CC(C)(C)COC(=O)c2ccccc2C(F)(F)F)c2c1C(=O)NCC1(CCOCC1)C2` [Example 303, [3-(3-ethyl-4-oxo-spiro[6,8-dihydro-5H-pyrazolo[4,3-c]azepine-7,4′-tetrahydropyran]-1-yl)-2,2-dimethyl-propyl] 2-(trifluoromethyl)benzoate], the 50% inhibitory concentration (IC50) is less than 100 nM.
As for `CCc1nn(CC(C)(C)COC(=O)c2ccc(C(F)(F)F)cc2)c2c1C(=O)NCC1(CCOCC1)C2` [Example 304, [3-(3-ethyl-4-oxo-spiro[6,8-dihydro-5H-pyrazolo[4,3-c]azepine-7,4′-tetrahydropyran]-1-yl)-2,2-dimethyl-propyl] 4-(trifluoromethyl)benzoate], the IC50 was less than 100 nM.
Under `CCc1nn(CC(C)(C)COC(=O)c2cccc(S(C)(=O)=O)c2)c2c1C(=O)NCC1(CCOCC1)C2` [Example 305, [3-(3-ethyl-4-oxo-spiro[6,8-dihydro-5H-pyrazolo[4,3-c]azepine-7,4′-tetrahydropyran]-1-yl)-2,2-dimethyl-propyl] 3-methylsulfonylbenzoate] stands less than 100 nM; under `CCc1nn(CC(C)(C)COC(=O)c2ccc(S(C)(=O)=O)cc2)c2c1C(=O)NCC1(CCOCC1)C2` [Example 306, [3-(3-ethyl-4-oxo-spiro[6,8-dihydro-5H-pyrazolo[4,3-c]azepine-7,4′-tetrahydropyran]-1-yl)-2,2-dimethyl-propyl] 4-methylsulfonylbenzoate], less than 100 nM; under `CCc1nn(CC(C)(C)COC(=O)c2ccccc2S(C)(=O)=O)c2c1C(=O)NCC1(CCOCC1)C2` [Example 307, [3-(3-ethyl-4-oxo-spiro[6,8-dihydro-5H-pyrazolo[4,3-c]azepine-7,4′-tetrahydropyran]-1-yl)-2,2-dimethyl-propyl] 2-methylsulfonylbenzoate], less than 100 nM.
On to `CCc1nn(CC(C)(C)COC(=O)c2cccc(S(N)(=O)=O)c2)c2c1C(=O)NCC1(CCOCC1)C2` [Example 308, [3-(3-ethyl-4-oxo-spiro[6,8-dihydro-5H-pyrazolo[4,3-c]azepine-7,4′-tetrahydropyran]-1-yl)-2,2-dimethyl-propyl] 3-sulfamoylbenzoate], for which the IC50 was less than 100 nM.
In the case of `CCc1nn(CC(C)(C)COC(=O)c2ccc(S(N)(=O)=O)cc2)c2c1C(=O)NCC1(CCOCC1)C2` [Example 309, [3-(3-ethyl-4-oxo-spiro[6,8-dihydro-5H-pyrazolo[4,3-c]azepine-7,4′-tetrahydropyran]-1-yl)-2,2-dimethyl-propyl] 4-sulfamoylbenzoate], the IC50 is less than 100 nM.
In the case of `CCc1nn(CC(C)(C)COC(=O)c2cc(F)cc(C(F)(F)F)c2)c2c1C(=O)NCC1(CCOCC1)C2` [Example 310, [3-(3-ethyl-4-oxo-spiro[6,8-dihydro-5H-pyrazolo[4,3-c]azepine-7,4′-tetrahydropyran]-1-yl)-2,2-dimethyl-propyl] 3-fluoro-5-(trifluoromethyl)benzoate] it was less than 100 nM.
Consider `CCc1nn(CC(C)(C)COC(=O)c2cccc(S(=O)(=O)CC)c2)c2c1C(=O)NCC1(CCOCC1)C2` [Example 311, [3-(3-ethyl-4-oxo-spiro[6,8-dihydro-5H-pyrazolo[4,3-c]azepine-7,4′-tetrahydropyran]-1-yl)-2,2-dimethyl-propyl] 3-ethylsulfonylbenzoate], for which the IC50 is less than 100 nM.
On to `CCc1nn(CC(C)(C)COC(=O)c2ccc(S(=O)(=O)CC)cc2)c2c1C(=O)NCC1(CCOCC1)C2` [Example 312, [3-(3-ethyl-4-oxo-spiro[6,8-dihydro-5H-pyrazolo[4,3-c]azepine-7,4′-tetrahydropyran]-1-yl)-2,2-dimethyl-propyl] 4-ethylsulfonylbenzoate], for which the IC50 is less than 100 nM.
`CCc1nn(CC(C)(C)COC(=O)c2cccc(S(=O)(=O)NC)c2)c2c1C(=O)NCC1(CCOCC1)C2` [Example 313, [3-(3-ethyl-4-oxo-spiro[6,8-dihydro-5H-pyrazolo[4,3-c]azepine-7,4′-tetrahydropyran]-1-yl)-2,2-dimethyl-propyl] 3-(methylsulfamoyl)benzoate]: the IC50 was less than 100 nM.
In the case of `CCc1nn(CC(C)(C)COC(=O)c2ccc(Cl)c(C(F)(F)F)c2)c2c1C(=O)NCC1(CCOCC1)C2` [Example 314, [3-(3-ethyl-4-oxo-spiro[6,8-dihydro-5H-pyrazolo[4,3-c]azepine-7,4′-tetrahydropyran]-1-yl)-2,2-dimethyl-propyl] 4-chloro-3-(trifluoromethyl)benzoate], the IC50 is less than 100 nM.
As for `CCc1nn(CC(C)(C)COC(=O)c2cc(C(F)(F)F)ccc2Cl)c2c1C(=O)NCC1(CCOCC1)C2` [Example 315, [3-(3-ethyl-4-oxo-spiro[6,8-dihydro-5H-pyrazolo[4,3-c]azepine-7,4′-tetrahydropyran]-1-yl)-2,2-dimethyl-propyl] 2-chloro-5-(trifluoromethyl)benzoate], the IC50 is less than 100 nM.
Turning to `CCc1nn(CC(C)(C)COC(=O)c2cccc(S(=O)(=O)C(C)C)c2)c2c1C(=O)NCC1(CCOCC1)C2` [Example 316, [3-(3-ethyl-4-oxo-spiro[6,8-dihydro-5H-pyrazolo[4,3-c]azepine-7,4′-tetrahydropyran]-1-yl)-2,2-dimethyl-propyl] 3-isopropylsulfonylbenzoate], the IC50 is less than 100 nM.
In the case of `CCc1nn(CC(C)(C)COC(=O)c2ccc(S(=O)(=O)C(C)C)cc2)c2c1C(=O)NCC1(CCOCC1)C2` [Example 317, [3-(3-ethyl-4-oxo-spiro[6,8-dihydro-5H-pyrazolo[4,3-c]azepine-7,4′-tetrahydropyran]-1-yl)-2,2-dimethyl-propyl] 4-isopropylsulfonylbenzoate], the IC50 is less than 100 nM.
Take `CCc1nn(CC(C)(C)COC(=O)c2ccc(S(=O)(=O)N(C)C)cc2)c2c1C(=O)NCC1(CCOCC1)C2` [Example 318, [3-(3-ethyl-4-oxo-spiro[6,8-dihydro-5H-pyrazolo[4,3-c]azepine-7,4′-tetrahydropyran]-1-yl)-2,2-dimethyl-propyl] 4-(dimethylsulfamoyl)benzoate]: the IC50 is less than 100 nM.
On to `CCc1nn(CC(C)(C)COC(=O)c2ccc(S(=O)(=O)C3CCCC3)cc2)c2c1C(=O)NCC1(CCOCC1)C2` [Example 319, [3-(3-ethyl-4-oxo-spiro[6,8-dihydro-5H-pyrazolo[4,3-c]azepine-7,4′-tetrahydropyran]-1-yl)-2,2-dimethyl-propyl] 4-cyclopentylsulfonylbenzoate], for which the IC50 is less than 100 nM.
Consider `CCc1nn(CC(C)(C)COC(=O)c2cccc(S(=O)(=O)N3CCCC3)c2)c2c1C(=O)NCC1(CCOCC1)C2` [Example 320, [3-(3-ethyl-4-oxo-spiro[6,8-dihydro-5H-pyrazolo[4,3-c]azepine-7,4′-tetrahydropyran]-1-yl)-2,2-dimethyl-propyl] 3-pyrrolidin-1-ylsulfonylbenzoate], for which the IC50 was less than 100 nM.
In the case of `CCc1nn(CC(C)(C)COC(=O)c2ccc(S(=O)(=O)N3CCCC3)cc2)c2c1C(=O)NCC1(CCOCC1)C2` [Example 321, [3-(3-ethyl-4-oxo-spiro[6,8-dihydro-5H-pyrazolo[4,3-c]azepine-7,4′-tetrahydropyran]-1-yl)-2,2-dimethyl-propyl] 4-pyrrolidin-1-ylsulfonylbenzoate], the IC50 was less than 100 nM.
As to `CCc1nn(CC(C)(C)COC(=O)c2ccc(S(=O)(=O)N3CCOCC3)cc2)c2c1C(=O)NCC1(CCOCC1)C2` [Example 322, [3-(3-ethyl-4-oxo-spiro[6,8-dihydro-5H-pyrazolo[4,3-c]azepine-7,4′-tetrahydropyran]-1-yl)-2,2-dimethyl-propyl] 4-morpholinosulfonylbenzoate], the IC50 is less than 100 nM.
In the case of `CCc1nn(CC(C)(C)COC(=O)c2cccc(S(=O)(=O)N3CCOCC3)c2)c2c1C(=O)NCC1(CCOCC1)C2` [Example 323, [3-(3-ethyl-4-oxo-spiro[6,8-dihydro-5H-pyrazolo[4,3-c]azepine-7,4′-tetrahydropyran]-1-yl)-2,2-dimethyl-propyl] 3-morpholinosulfonylbenzoate] it was less than 100 nM; in that of `CCc1nn(CC(C)(C)COC(=O)c2ccc(S(=O)(=O)N3CCN(C(C)=O)CC3)cc2)c2c1C(=O)NCC1(CCOCC1)C2` [Example 324, [3-(3-ethyl-4-oxo-spiro[6,8-dihydro-5H-pyrazolo[4,3-c]azepine-7,4′-tetrahydropyran]-1-yl)-2,2-dimethyl-propyl] 4-(4-acetylpiperazin-1-yl)sulfonylbenzoate], less than 100 nM.
As to `CCc1nn(CC(C)(C)COC(=O)c2cccc(S(=O)(=O)N3CCN(C(C)=O)CC3)c2)c2c1C(=O)NCC1(CCOCC1)C2` [Example 325, [3-(3-ethyl-4-oxo-spiro[6,8-dihydro-5H-pyrazolo[4,3-c]azepine-7,4′-tetrahydropyran]-1-yl)-2,2-dimethyl-propyl] 3-(4-acetylpiperazin-1-yl)sulfonylbenzoate], the IC50 was less than 100 nM.
